Laboratory results: patent US20250099407A1, “2-AMINO BENZOPHENONE DERIVATIVES FOR TARGETED FERROPTOSIS INDUCTION IN CANCER THERAPY” (INDIAN INSTITUTE OF TECHNOLOGY KANPUR, priority 2023, published 2025)

What was measured:
22Rv1 = assay: Cell viability, CellTiter-Glo assay, 22Rv1; format: cell-based; conditions: Homo sapiens, 22Rv1, 22Rv1, cell viability
Description: (§1) The viability of screened cancer cells was recorded using a luminescence-based CellTiter-Glo® assay for the ATP quantification. The screening concentration of the molecule ranged from 100/10 μM to 45/4.5 nM with an 8-point-3-fold dilution series in DMEM media (>0.1% DMSO as control). Each experiment was conducted in more than two biological replicates with three technical replicates. The error bar is a representation of standard deviation among the technical replicates.
as §1, with “IITK3002” for “the molecule”, “10” for “100/10”, “4.5” for “45/4.5”
(§2) a. […] In parallel, we have also synthesized the bromoacetamide (IITK3002) version of the lead molecules which is slightly more reactive with thiol nucleophiles when compared to chlorooacetamide warheads as depicted in FIG. 13. […] In addition, we also evaluated the molecules' antiproliferative potency against a panel of twelve different cancer phenotypes. The set of cancer cell lines included liver, breast, colon, myeloma, bone, blood, skin, brain and prostate lineages (FIG. 2, 3, Table 1).

A549 = assay: Cell viability, A549; format: cell-based; conditions: Homo sapiens
Huh-7 cells = assay: Cell viability, luminescence-based CellTiter-Glo assay, Huh-7 cells; conditions: Homo sapiens, Huh-7, Huh-7 cells, cell viability; read-out: EC50 Huh-7
Description: The viability of Huh-7 cells was recorded using a luminescence-based CellTiter-Glo® assay. The screening concentration of the molecules were 10 μM with or without Fer-1 (10 μM) in DMEM media (>0.1% DMSO as control).
Ferroptosis is a unique form of cell death mechanism mediated by the accumulation of lipid peroxides in cells which is distinct from healthy cells' apoptosis, a programmed […] route. We aimed to exploit the induction of ferroptosis in cancer cells using covalent small molecules as a potential strategy for cancer therapeutic development. […] We used various amide bond formation chemistry to construct the library members and these molecules are well characterized by various spectroscopic and mass spectrometry techniques. Once confirmed, these thiol reactive library members were screened in a cancer cell viability assay in combination with ferrostatin-1 (Fer-1), a ferroptosis inhibitor as depicted in FIG. 11. […] We have screened a total of ˜50 electrophilic small molecules to prevent the proliferation of hepatocellular carcinoma (Huh-7 cells) in combination with and without Fer-1. From our initial screening, we identified haloacetamides of 2-aminoalkylbenzophenone as potential ferroptosis inducers as depicted in FIG. 11.
as §1
The viability of screened cancer cells was recorded using a luminescence-based CellTiter-Glo® assay for the ATP quantification. The screening concentration of IITK3002 ranged from 10 μM to 4.5 nM with an 8-point-3-fold dilution series in DMEM media (>0.1% DMSO as control). Each experiment was conducted in more than two biological replicates with three technical replicates. The error bar is a representation of standard deviation among the technical replicates. […]
a. Electrophilic Warhead Optimization: Once we identified 2-benzoylphenyl-a-haloacetamide as the lead scaffold, we have investigated the structure-activity-relationship analysis to precisely capture the effect of various chemical handles of the scaffold and use the knowledge to improve the overall potency and selectivity of this molecule to prevent cancer cell proliferation. First, we changed the haloacetamide electrophilic unit with various other electrophiles with a characteristic high, moderate, and weak reactivity with thiols when compared to chloroacetamide. Therefore, we opted vinylsulfonamide (highly reactivity), acrylamide (moderate reactivity), and phenoxyacetamides (weak reactivity warheads) for incorporation in the place of haloacetamide warhead of the top hit scaffold. Once synthesized, these molecules were evaluated to assess their antiproliferative potency against Huh-7 cells (Table 2). As expected, the introduction of weakly reactive electrophilic warheads, phenoxyactamides, completely lost the activity against Huh-7 cells. […] Perhaps, the secondary interactions of the electrophilic warhead with the target proteins might play additional roles. Therefore, we shifted our focus to optimize the rest of the core scaffold for further SAR analysis. b. Role of N-Substitutions: Next, we synthesized the NH-derivative of haloacetamides to capture the importance of N-alkylation on the activity of our hit molecule. […] Perhaps the hydrogen bonding induced planarity around the warhead influences the molecules' weakened potency. Conversely, the additional flexibility in the lead molecule (tertiary amide) might contribute to the strong antiproliferative activity of the hit molecule. […]

U2OS = assay: Cell viability, CellTiter-Glo assay, U2OS; format: cell-based; conditions: Homo sapiens
Description: as §1
(§3) The viability of screened cancer cells was recorded using a luminescence-based CellTiter-Glo® assay for the ATP quantification. The screening concentration of IITK3002 ranged from 10 μM to 4.5 nM with an 8-point-3-fold dilution series in DMEM media (>0.1% DMSO as control). Each experiment was conducted in more than two biological replicates with three technical replicates. The error bar is a representation of standard deviation among the technical replicates.
as §2

PC3 = assay: Cell viability, CellTiter-Glo assay, PC3; format: cell-based; conditions: Homo sapiens, PC-3, PC3, cell viability
Description: as §1, §3, §2

SMILES | EC50 (22Rv1) | EC50 (A549) | EC50 (Huh-7 cells) | EC50 (U2OS) | EC50 (PC3)
O=C(c1ccccc1)c1ccccc1N(Cc1ccccc1)C(=O)COc1ccc(F)cc1 [IITK3037, N-(2-benzoylphenyl)-N-benzyl-2-(4-fluorophenoxy)acetamide] | > 20 µM | > 20 µM | > 20 µM | > 20 µM | > 20 µM
C=CC(=O)N(C)c1ccccc1C(=O)c1ccccc1 [IITK3010, N-(2-benzoylphenyl)-N-methylacrylamide] | > 20 µM | > 20 µM | – | > 20 µM | > 20 µM
C#CCN(C(=O)COc1ccccc1)c1ccccc1C(=O)c1ccccc1 [IITK3029, N-(2-benzoylphenyl)-2-phenoxy-N-(prop-2-yn-1-yl)acetamide] | > 20 µM | > 20 µM | > 20 µM | > 20 µM | > 20 µM
O=C(CBr)Nc1ccc([N+](=O)[O-])cc1C(=O)c1ccccc1 [IITK3051, N-(2-benzoyl-4-nitrophenyl)-2-bromoacetamide] | > 20 µM | > 20 µM | – | > 20 µM | > 20 µM
C=CCN(C(=O)COc1ccccc1)c1ccccc1C(=O)c1ccccc1 [IITK3020, N-allyl-N-(2-benzoylphenyl)-2-phenoxyacetamide] | > 20 µM | > 20 µM | – | > 20 µM | > 20 µM
O=C(c1ccccc1)c1ccccc1N(Cc1ccccc1)C(=O)COc1ccccc1 [IITK3036, N-(2-benzoylphenyl)-N-benzyl-2-phenoxyacetamide] | > 20 µM | > 20 µM | > 20 µM | > 20 µM | > 20 µM
CC(C)N(C(=O)CCl)c1ccccc1C(=O)c1ccccc1 [IITK3028, N-(2-benzoylphenyl)-2-chloro-N-isopropylacetamide] | > 20 µM | > 20 µM | 19.6 µM | > 20 µM | > 20 µM
CN(C(=O)COc1ccc(Br)cc1)c1ccccc1C(=O)c1ccccc1 [IITK3009, N-(2-benzoylphenyl)-2-(4-bromophenoxy)-N-methylacetamide] | > 20 µM | > 20 µM | > 20 µM | > 20 µM | > 20 µM
CN(C(=O)COc1ccc(F)cc1)c1ccccc1C(=O)c1ccccc1 [IITK3006, N-(2-benzoylphenyl)-2-(4-fluorophenoxy)-N-methylacetamide] | > 20 µM | > 20 µM | > 20 µM | > 20 µM | > 20 µM
C#CCN(C(=O)COc1ccc(F)cc1)c1ccccc1C(=O)c1ccccc1 [IITK3030, N-(2-benzoylphenyl)-2-(4-fluorophenoxy)-N-(prop-2-yn-1-yl)acetamide] | > 20 µM | > 20 µM | > 100 µM | > 20 µM | > 20 µM
O=C(c1ccccc1)c1ccccc1N(Cc1ccccc1)C(=O)CCl [IITK3034, N-(2-benzoylphenyl)-N-benzyl-2-chloroacetamide] | 3.85 µM | – | – | – | –
CC(C)(C)c1ccc(OCC(=O)N(Cc2ccccc2)c2ccccc2C(=O)c2ccccc2)cc1 [IITK3038, N-(2-benzoylphenyl)-N-benzyl-2-(4-(tert-butyl)phenoxy)acetamide] | > 20 µM | > 20 µM | > 100 µM | > 20 µM | > 20 µM
C=CS(=O)(=O)N(C)c1ccccc1C(=O)c1ccccc1 [IITK3011, N-(2-benzoylphenyl)-N-methylethenesulfonamide] | > 20 µM | > 20 µM | – | > 20 µM | > 20 µM
CN(C(=O)COc1ccc(C(C)(C)C)cc1)c1ccccc1C(=O)c1ccccc1 [IITK3008, N-(2-benzoylphenyl)-2-(4-(tert-butyl)phenoxy)-N-methylacetamide] | – | – | > 20 µM | – | 12.8 µM
O=C(c1ccccc1)c1ccccc1N(Cc1ccccc1)C(=O)CBr [IITK3035, N-(2-benzoylphenyl)-N-benzyl-2-bromoacetamide] | 0.77 µM | 0.24 µM | – | 0.19 µM | 0.53 µM
C=CCN(C(=O)COc1ccc(C(C)(C)C)cc1)c1ccccc1C(=O)c1ccccc1 [IITK3023, N-allyl-N-(2-benzoylphenyl)-2-(4-(tert-butyl)phenoxy)acetamide] | > 20 µM | 20 µM | – | > 100 µM | > 20 µM
C#CCN(C(=O)COc1ccc(Br)cc1)c1ccccc1C(=O)c1ccccc1 [IITK3033, N-(2-benzoylphenyl)-2-(4-bromophenoxy)-N-(prop-2-yn-1-yl)acetamide] | > 20 µM | > 20 µM | > 20 µM | > 20 µM | > 20 µM
O=C(CCl)Nc1ccccc1C(=O)c1ccccc1 [IITK3012, N-(2-benzoylphenyl)-2-chloroacetamide] | > 20 µM | > 20 µM | – | > 20 µM | > 20 µM
